Data reported in publication PMC11678425, “(-)-Syringaresinol Exerts an Antidepressant-like Activity in Mice by Noncompetitive Inhibition of the Serotonin Transporter” (Pharmaceuticals, 2024).

Columns and labels:
[1] = tested on: SERT; conditions: cited from earlier work
[2] = biological target: T1, hSERT P499G (Homo sapiens, UniProt P31645, P499G); test: APP^+ uptake, hSERT P499G; assay type: cell-based; conditions: S2 site mutant
T1 construct: forward and reverse primers were used to amplify a full-length hSERT; expressed in transfected cells; host or cells: HeLa cells, transient, pcDNA3.1

[3] = biological target: T2, hSERT I327A (Homo sapiens, UniProt P31645, I327A); test: APP^+ uptake, hSERT I327A; assay type: cell-based; conditions: S2 site mutant
T2 construct: forward and reverse primers were used to amplify a full-length hSERT; expressed in transfected cells; host or cells: HeLa cells, transient, pcDNA3.1

[4] = biological target: T3, hSERT WT (Homo sapiens, UniProt P31645); test: APP^+ uptake, hSERT WT; assay type: cell-based; conditions: WT
T3 construct: forward and reverse primers were used to amplify a full-length hSERT; expressed in transfected cells; host or cells: HeLa cells (CCL-2), transient, pcDNA3.1

[5] = biological target: T4, hSERT D328A (Homo sapiens, UniProt P31645, D328A); test: APP^+ uptake, hSERT D328A; assay type: cell-based; conditions: S2 site mutant
T4 construct: forward and reverse primers were used to amplify a full-length hSERT; expressed in transfected cells; host or cells: HeLa cells, transient, pcDNA3.1

[6] = biological target: T5, hSERT Q562N (Homo sapiens, UniProt P31645, Q562N); test: APP^+ uptake, hSERT Q562N; assay type: cell-based; conditions: S2 site mutant
T5 construct: forward and reverse primers were used to amplify a full-length hSERT; expressed in transfected cells; host or cells: HeLa

[7] = biological target: T6, hSERT L565A (Homo sapiens, UniProt P31645, L565A); test: APP^+ uptake, hSERT L565A; assay type: cell-based; conditions: S2 site mutant
T6 construct: forward and reverse primers were used to amplify a full-length hSERT; expressed in transfected cells; host or cells: HeLa

[8] = biological target: T7, hSERT R564A (Homo sapiens, UniProt P31645, R564A); test: APP^+ uptake, hSERT R564A; assay type: cell-based; conditions: S2 site mutant
T7 construct: forward and reverse primers were used to amplify a full-length hSERT; expressed in transfected cells; host or cells: HeLa

[9] = biological target: T8, hSERT Y579A (Homo sapiens, UniProt P31645, Y579A); test: APP^+ uptake, hSERT Y579A; assay type: cell-based; conditions: S2 site mutant
T8 construct: forward and reverse primers were used to amplify a full-length hSERT; expressed in transfected cells; host or cells: HeLa

[10] = biological target: T9, hSERT L563A (Homo sapiens, UniProt P31645, L563A); test: APP^+ uptake, hSERT L563A; assay type: cell-based; conditions: S2 site mutant
T9 construct: forward and reverse primers were used to amplify a full-length hSERT; expressed in transfected cells; host or cells: HeLa

[11] = biological target: T10, hSERT P561G (Homo sapiens, UniProt P31645, P561G); test: APP^+ uptake, hSERT P561G; assay type: cell-based; conditions: S2 site mutant
T10 construct: forward and reverse primers were used to amplify a full-length hSERT; expressed in transfected cells; host or cells: HeLa

[12] = biological target: T11, hSERT E494Q (Homo sapiens, UniProt P31645, E494Q); test: APP^+ uptake, hSERT E494Q; assay type: cell-based; conditions: S2 site mutant
T11 construct: forward and reverse primers were used to amplify a full-length hSERT; expressed in transfected cells; host or cells: HeLa cells, transient, pcDNA3.1

[13] = biological target: T12, hSERT S559A (Homo sapiens, UniProt P31645, S559A); test: APP^+ uptake, hSERT S559A; assay type: cell-based; conditions: S2 site mutant
T12 construct: forward and reverse primers were used to amplify a full-length hSERT; expressed in transfected cells; host or cells: HeLa cells, transient, pcDNA3.1

[14] = biological target: T13, hSERT E493N (Homo sapiens, UniProt P31645, E493N); test: APP^+ uptake, hSERT E493N; assay type: cell-based; conditions: S2 site mutant
T13 construct: forward and reverse primers were used to amplify a full-length hSERT; expressed in transfected cells; host or cells: HeLa cells, transient, pcDNA3.1

[15] = biological target: T14, hSERT Q111N (Homo sapiens, UniProt P31645, Q111N); test: APP^+ uptake, hSERT Q111N; assay type: cell-based; conditions: S2 site mutant
T14 construct: forward and reverse primers were used to amplify a full-length hSERT; expressed in transfected cells; host or cells: HeLa cells, transient, pcDNA3.1

[16] = biological target: T15, hSERT P560G (Homo sapiens, UniProt P31645, P560G); test: APP^+ uptake, hSERT P560G; assay type: cell-based; conditions: S2 site mutant
T15 construct: forward and reverse primers were used to amplify a full-length hSERT; expressed in transfected cells; host or cells: HeLa cells, transient, pcDNA3.1

[17] = biological target: T16, hSERT T583A (Homo sapiens, UniProt P31645, T583A); test: APP^+ uptake, hSERT T583A; assay type: cell-based; conditions: S2 site mutant
T16 construct: forward and reverse primers were used to amplify a full-length hSERT; expressed in transfected cells; host or cells: HeLa

[18] = biological target: T17, hSERT T497A (Homo sapiens, UniProt P31645, T497A); test: APP^+ uptake, hSERT T497A; assay type: cell-based; conditions: S2 site mutant
T17 construct: forward and reverse primers were used to amplify a full-length hSERT; expressed in transfected cells; host or cells: HeLa cells, transient, pcDNA3.1

[19] = biological target: T18, hSERT G498T (Homo sapiens, UniProt P31645, G498T); test: APP^+ uptake, hSERT G498T; assay type: cell-based; conditions: S2 site mutant
T18 construct: forward and reverse primers were used to amplify a full-length hSERT; expressed in transfected cells; host or cells: HeLa cells, transient, pcDNA3.1

[20] = biological target: T19, hSERT F556A (Homo sapiens, UniProt P31645, F556A); test: APP^+ uptake, hSERT F556A; assay type: cell-based; conditions: S2 site mutant
T19 construct: forward and reverse primers were used to amplify a full-length hSERT; expressed in transfected cells; host or cells: HeLa cells, transient, pcDNA3.1

[21] = tested on: SERT S277C/X5C; test: Cysteine accessibility, cytoplasmic pathway: MTSEA reactivity with S277C/X5C; assay type: cell-based; conditions: 10 μM ligand, digitonin-permeabilized cells, compared with the control
[22] = tested on: SERT Y107C/C109A; test: Cysteine accessibility, extracellular pathway: MTSET reactivity with Y107C/C109A; assay type: cell-based; conditions: 10 μM ligand, compared with the control (MTSET alone)

COc1cc(C2OCC3C(c4cc(OC)c(O[C@@H]5O[C@H](CO)[C@@H](O)[C@H](O)[C@H]5O)c(OC)c4)OCC23)cc(OC)c1O[C@@H]1O[C@H](CO)[C@@H](O)[C@H](O)[C@H]1O (single isomer, unassigned; (-)) [SBG, (-)-syringaresinol-4,4′-bis-O-β-D-glucopyranoside]
inhibitory potency against SERT [1]: a few micromolar range | mode of inhibition of SERT activity [1]: noncompetitively inhibit

COc1cc(C2OCC3C(c4cc(OC)c(OC5OC(CO)C(O)C(O)C5OC5OCC(O)(CO)C5O)c(OC)c4)OCC23)cc(OC)c1O (single isomer, unassigned; (-)) [SAG, (-)-syringaresinol-4-O-D-apiofuranosyl-(1→2)-D-glucopyranoside]
inhibitory potency against SERT [1]: a few micromolar range | mode of inhibition of SERT activity [1]: noncompetitively inhibit

CN(C)c1ccc(-c2cc[n+](C)cc2)cc1 [APP^+, 4-(4-(dimethylamino)phenyl)-1-methylpyridinium]
Vmax ([2]; APP^+ transport): 27.28 ± 0.43 AFU/min | Km [2]: 3.72 ± 0.45 µM | Vmax ([3]; APP^+ transport): 26.54 ± 1.43 AFU/min | Km [3]: 4.27 ± 0.79 µM | Vmax ([4]; APP^+ transport): 22.98 ± 0.92 AFU/min | Km [4]: 2.24 ± 0.45 µM | Vmax ([5]; APP^+ transport): 27.83 ± 0.85 AFU/min | Km [5]: 3.81 ± 0.27 µM | Vmax ([6]; APP^+ transport): 23.57 ± 1.49 AFU/min | Km [6]: 1.85 ± 0.36 µM | Vmax ([7]; APP^+ transport): 21.13 ± 0.16 AFU/min | Km [7]: 0.68 ± 0.04 µM | Vmax ([8]; APP^+ transport): 27.10 ± 0.08 AFU/min | Km [8]: 3.41 ± 0.12 µM | Vmax ([9]; APP^+ transport): 23.89 ± 2.33 AFU/min | Km [9]: 2.81 ± 0.08 µM | Vmax ([10]; APP^+ transport): 23.53 ± 0.45 AFU/min | Km [10]: 1.53 ± 0.07 µM | Vmax ([11]; APP^+ transport): 26.55 ± 1.08 AFU/min | Km [11]: 2.73 ± 0.09 µM | Vmax ([12]; APP^+ transport): 31.12 ± 0.89 AFU/min | Km [12]: 6.83 ± 0.86 µM | Vmax ([13]; APP^+ transport): 23.68 ± 0.57 AFU/min | Km [13]: 3.82 ± 0.55 µM | Vmax ([14]; APP^+ transport): 25.48 ± 0.96 AFU/min | Km [14]: 4.83 ± 0.19 µM | Vmax ([15]; APP^+ transport): 26.93 ± 1.35 AFU/min | Km [15]: 3.69 ± 0.36 µM | Vmax ([16]; APP^+ transport): 21.70 ± 0.90 AFU/min | Km [16]: 1.85 ± 0.16 µM | Vmax ([17]; APP^+ transport): 26.97 ± 0.26 AFU/min | Km [17]: 3.68 ± 0.15 µM | Vmax ([18]; APP^+ transport): 26.63 ± 1.09 AFU/min | Km [18]: 3.85 ± 0.06 µM | Vmax ([19]; APP^+ transport): 26.30 ± 1.52 AFU/min | Km [19]: 3.75 ± 0.32 µM | Vmax ([20]; APP^+ transport): 26.84 ± 1.74 AFU/min | Km [20]: 4.69 ± 1.02 µM

NCCc1c[nH]c2ccc(O)cc12 [5-HT, 5-hydroxytryptamine, reference compound]
rate constant of MTSEA reactivity with S277C/X5C [21]: increased | rate constant of MTSET reactivity with Y107C/C109A [22]: decreased
